Patent publication US20030134420A1, “Methods and compositions for gene delivery” (priority 2000, published 2003)

How the values were obtained:
[1] = tested on: pCMVLuc luciferase expression per gram of liver; experiment: Luciferase expression in liver after tail vein injection of pCMVLuc polyplexes/formulants; conditions: mice; for Luciferase Average [pg./g liver]: 15 μg of DNA per injection
[2] = Biodistribution and clearance of 125I-pCMVβGal; type: in vivo; conditions: mice
Description: The biodistribution of ^125I-pCMV βGal was also studied in mice. Mice were injected with a dose of 300 μL containing 50 μg/mL of DNA. The distribution of free DNA, free DNA and TCDC, encapsulated in a polyplex comprised of block copolymer (PEG5k-b-(Cys-S—C18)10-b-(Lys)45) and the polyplex with TCDC were tested after 5 (FIG. 17A) and 60 (FIG. 17B) minutes. […] The clearance of ^125I-pCMVβGal was also studied using the ABC Polymer, (PEG5k-b-(Cys-S—C18)10-b-(Lys)45) (BP-A).

## C[C@H](CCC(=O)NCCCOCCOCCOCCCN)[C@H]1CC[C@H]2C3[C@H](O)C[C@@H]4C[C@H](O)CCC4(C)[C@H]3C[C@H](O)[C@]12C (stereo partly drawn)
[1]; formulant dose 0.10%
  Luciferase Average [pg./g liver]: 3964 pg./g liver

## C[C@H](CCC(=O)NCCC[N+](C)(C)CCCS(=O)(=O)[O-])[C@H]1CC[C@H]2[C@@H]3[C@H](O)C[C@@H]4C[C@H](O)CC[C@]4(C)[C@H]3C[C@H](O)[C@]12C.O [CHAPS, 3-[(3-Cholamidopropyl)dimethylammonio]1-propanesulfonate hydrate]
[1]; formulant dose 0.50%
  Luciferase Average [pg./g liver]: 178 pg./g liver

## C[C@H](CCC(=O)NCCS(=O)(=O)[O-])[C@H]1CC[C@H]2[C@@H]3[C@@H](O)C[C@@H]4C[C@H](O)CC[C@]4(C)[C@H]3CC[C@]12C.[Na+] [TCDC]
[2]; 300 μL dose, 50 μg/mL DNA, BP-A polyplex with TCDC, 5 and 60 minutes
  biodistribution of 125I-pCMVβGal (FIG. 17): redirects the polyplex from the lungs and other organs to the blood
[2]; ABC Polymer (BP-A) polyplex, administration of TCDC
  clearance / half-life of 125I-pCMVβGal DNA: greatly enhanced the half-life of the DNA
[1]; formulant dose 0.50%
  Luciferase Average [pg./g liver]: 517 pg./g liver

## C[C@H](CCC(=O)NCCC[N+](C)(C)CC(O)CS(=O)(=O)[O-])[C@H]1CC[C@H]2[C@@H]3[C@H](O)C[C@@H]4C[C@H](O)CC[C@]4(C)[C@H]3C[C@H](O)[C@]12C (stereo partly drawn) [CHAPSO]
[1]; formulant dose 0.50%
  Luciferase Average [pg./g liver]: 188 pg./g liver

## CCCCCCC(=O)OC[C@H](COP(=O)([O-])OCC[N+](C)(C)C)OC(=O)CCCCCC [DHPC]
[1]; formulant dose 0.40%
  Luciferase Average [pg./g liver]: 470 pg./g liver
[1]; 200 μL dose, 15 μg/mL pCMVLuc, Trigal copolymer polyplexes
  effect of addition of formulant on luciferase expression (FIG. 15): greatly enhances the expression of luciferase

## C[C@H](CCC(=O)N(CCCNC(=O)[C@H](O)[C@@H](O)[C@H](O)[C@H](O)CO)CCCNC(=O)[C@H](O)[C@@H](O)[C@H](O)[C@H](O)CO)[C@H]1CC[C@H]2[C@@H]3CC[C@@H]4C[C@H](O)CC[C@]4(C)[C@H]3C[C@H](O)[C@]12C [Deoxy BIGCHAP]
[1]; formulant dose 0.50%
  Luciferase Average [pg./g liver]: 129 pg./g liver
